Converted amounts (≈) assume the structure as drawn. “And” between values parts separate entries of the source, which are not always exact repeats. Identical values can stand only once.
Tests used:
TNF-α = TNF-α in BALF of M. pneumoniae-infected mice (ELISA); assay type: in vivo, BALB/c mice; settings: for TNF-α in BALF (AV): group AV; for TNF-α in BALF: individual mice
Protocol: (§1) Adult BALB/c mice (20–22 g) were divided into a control group, a positive group, and compound 16C groups at low (20 mg/kg), medium (40 mg/kg), and high-dose (80 mg/kg) levels and oral and intramuscular tiamulin treatment groups (40 mg/kg). We formulated the above dose range based on the dose at which tiamulin was approved for injection (10–20 mg/kg) and the dose previously reported (45 mg/kg) ([EMA, 1999]; [Xiao et al., 2016]). In summary, we selected similar doses for compound 16C in vivo study. 40 mg/kg was used as an intermediate value, one-half of it as a low dose, and two times of it as a high dose. To prepare the challenge solution, logarithmic phase culture suspensions were centrifuged at 1700 g for 10 min, and the pellets were suspended in sterile PBS to obtain 1 × 10^9 CFU/mL. Before the challenge, mice were anesthetized with tribromoethanol (250 mg/kg, IP). Mice in the control groups were intratracheally inoculated with sterile PBS, whereas mice in the other groups were intratracheally challenged with 50 μL (1 × 10^9 CFU/mL) M. pneumoniae suspension once a day for 3 days. Compound 16C and tiamulin (tiamulin-IM group) dissolved using the method mentioned in pharmacokinetic studies, and the tiamulin fumarate soluble powder was dissolved in ddH2O for oral administration. After the final challenge, antibiotics were administered at low, medium, and high-dose levels (see above) at 10 a.m. and 10 p.m. daily for 4 consecutive days. Normal saline containing 5% DMSO and 5% Tween-80 was administered as control and positive groups by thigh intramuscular injection. To compare the efficacy of compound 16C and tiamulin under the same route of administration, we used the original tiamulin for intramuscular administration in the same formulation. On the other hand, tiamulin fumarate soluble powder, approved for oral administration to treat animal mycoplasma diseases in China, was administered to mice by gavage. Based on a clinical study of lefamulin in community-acquired bacterial pneumonia (CABP), subjects were administered twice a day and the 96 ± 24 h of starting treatment was an essential point for early clinical response (ECR) ([Paukner et al., 2022]). We therefore stopped treatment at 96 h and sampled at 192 h to explore whether the disease worsened after cessation of treatment. Bronchoalveolar lavage fluid (BALF) and lungs were collected at 0, 96, 192 h (Samples of 0 h were collected before starting treatment, and mice were fed ad libitum without drug treatment during 96–192 h) after the first dose, BALF for cytokine and cytological analysis and lung for histopathological evaluation.
(§2) Bronchoalveolar lavage was performed according to a standardized method ([Van Hoecke et al., 2017]). BALF was obtained following infusion of 0.5 mL PBS via tracheal cannulation into the lung twice (total 1 mL), and 200 µL was used for mycoplasma counts. The remaining BALF was centrifuged at 300 g for 10 min to separate the debris. The supernatants were stored at −80°C, and the debris was resuspended in the same volume of PBS containing red blood cell lysis buffer. A hemocytometer was used to count total cell numbers in BALF, and cell smears (Diff-Quik staining) were prepared to calculate the percentages of neutrophils, macrophages, and lymphocytes. IFN-γ, TNF-α, and CXCL1 levels in BALF samples were assessed using commercial ELISA kits using guidelines recommended by the manufacturer (Elabscience, Wuhan, China). Parallel data for each experimental group at each time point were obtained from six different mice.

[1] = system: Mycoplasma pneumoniae strain M129 (ATCC 29342); test: Susceptibility assay (broth microdilution MIC, MBC); assay type: cell-based
In short: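 Broth microdilution was run per standardized mycoplasma methods in modified SP-4 medium (pH 7.4, 20% FBS, phenol red) at 37°C, 5% CO2, with about 10^6 CFU/mL inoculum. Growth was read as an acid-driven yellow color change; MBC was determined by counting organisms from high-concentration wells after the MIC endpoint.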

Mycoplasma pneumoniae = test: In vivo pharmacodynamic study: Mycoplasma pneumoniae loads in BALF of infected mice; parameters: species or system BALB/c mice; settings: for MPcounts in BALF (AV): group AV; for MPcounts in BALF: individual mice
Protocol: as §1, §2

[2] = system: inflammatory cells in BALF (neutrophils, macrophages, lymphocytes); test: Inflammatory cell analysis in BALF of M. pneumoniae-infected mice; assay type: in vivo, BALB/c mice
Protocol: as §1, §2

[3] = compound 16C 20 mg/kg IM, 192 h
[4] = compound 16C 40 mg/kg IM, 192 h
[5] = compound 16C 80 mg/kg IM, 192 h

C=CC1(C)CC(OC(=O)CSc2ccc(NC(=O)Cc3ccc([N+](=O)[O-])cc3)cc2)C2(C)C(C)CCC3(CCC(=O)C32)C(C)C1O (centres unmarked) [compound 16C, 22–((4-((4-nitrophenyl)acetamido)phenyl)thio)deoxypleuromutilin]
TNF-α in BALF (AV) (TNF-α; compound 16C 20 mg/kg IM, 96 h): 60.6586 pg/mL
TNF-α in BALF (TNF-α; compound 16C 20 mg/kg IM, 96 h): 156.929 pg/mL and 49.4117 pg/mL and 56.9942 pg/mL and 23.2695 pg/mL and 42.5167 pg/mL and 34.8302 pg/mL
TNF-α in BALF (AV) (TNF-α; [3]): 1.835 pg/mL
TNF-α in BALF (TNF-α; [3]): 1.8363 pg/mL and 1.566 pg/mL and 2.372 pg/mL and 2.105 pg/mL and 1.293 pg/mL
TNF-α in BALF (AV) (TNF-α; compound 16C 40 mg/kg IM, 96 h): 10.1817 pg/mL
TNF-α in BALF (TNF-α; compound 16C 40 mg/kg IM, 96 h): 13.0051 pg/mL and 8.3889 pg/mL and 8.57 pg/mL and 9.454 pg/mL and 9.28 pg/mL and 12.3919 pg/mL
TNF-α in BALF (AV) (TNF-α; [4]): 8.528 pg/mL
TNF-α in BALF (TNF-α; [4]): 8.021 pg/mL and 8.206 pg/mL and 7.835 pg/mL and 9.798 pg/mL and 9.105 pg/mL
TNF-α in BALF (AV) (TNF-α; compound 16C 80 mg/kg IM, 96 h): 10.9013 pg/mL
TNF-α in BALF (TNF-α; compound 16C 80 mg/kg IM, 96 h): 5.596 pg/mL and 10.365 pg/mL and 13.376 pg/mL and 12.1685 pg/mL and 14.3215 pg/mL and 9.581 pg/mL
TNF-α in BALF (AV) (TNF-α; [5]): 10.3825 pg/mL
TNF-α in BALF (TNF-α; [5]): 8.923 pg/mL and 7.924 pg/mL and 10.8189 pg/mL and 12.996 pg/mL and 10.1697 pg/mL and 11.4637 pg/mL
MBC ([1]; M. pneumoniae strain M129): 7.812 ng/mL (≈ 12 nM)
MIC ([1]; M. pneumoniae strain M129, ≈96 h): 1.953 ng/mL (≈ 3.01 nM)
microbial reduction in BALF (Mycoplasma pneumoniae; compound 16C 20 mg/kg IM twice daily 4 d, 96 h): 1.40 log10 CFU/mL
MPcounts in BALF (AV) (Mycoplasma pneumoniae; compound 16C 20 mg/kg IM, 96 h): 4.601 Log10CFU/mL
MPcounts in BALF (Mycoplasma pneumoniae; compound 16C 20 mg/kg IM, 96 h): 5.04 Log10CFU/mL and 4.682 Log10CFU/mL and 3.8451 Log10CFU/mL and 4.709 Log10CFU/mL and 4.293 Log10CFU/mL and 5.039 Log10CFU/mL
MPcounts in BALF (AV) (Mycoplasma pneumoniae; [3]): 3.598 Log10CFU/mL
MPcounts in BALF (Mycoplasma pneumoniae; [3]): 3.747 Log10CFU/mL and 3.757 Log10CFU/mL and 3.482 Log10CFU/mL and 3.599 Log10CFU/mL and 3.64 Log10CFU/mL and 3.366 Log10CFU/mL
microbial reduction in BALF (Mycoplasma pneumoniae; compound 16C 40 mg/kg IM twice daily 4 d, 96 h): 2.02 log10 CFU/mL
MPcounts in BALF (AV) (Mycoplasma pneumoniae; compound 16C 40 mg/kg IM, 96 h): 3.896 Log10CFU/mL
MPcounts in BALF (Mycoplasma pneumoniae; compound 16C 40 mg/kg IM, 96 h): 4.213 Log10CFU/mL and 4.174 Log10CFU/mL and 3.6574 Log10CFU/mL and 4.285 Log10CFU/mL and 3.708 Log10CFU/mL and 3.341 Log10CFU/mL
MPcounts in BALF (AV) (Mycoplasma pneumoniae; [4]): 3.662 Log10CFU/mL
MPcounts in BALF (Mycoplasma pneumoniae; [4]): 3.675 Log10CFU/mL and 3.607 Log10CFU/mL and 3.633 Log10CFU/mL and 3.784 Log10CFU/mL and 3.322 Log10CFU/mL and 3.954 Log10CFU/mL
microbial reduction in BALF (Mycoplasma pneumoniae; compound 16C 80 mg/kg IM twice daily 4 d, 96 h): 2.68 log10 CFU/mL
microbial reduction in BALF (Mycoplasma pneumoniae; compound 16C 80 mg/kg IM twice daily 4 d, 192 h): 2.65 log10 CFU/mL
MPcounts in BALF (AV) (Mycoplasma pneumoniae; compound 16C 80 mg/kg IM, 96 h): 3.141 Log10CFU/mL
MPcounts in BALF (Mycoplasma pneumoniae; compound 16C 80 mg/kg IM, 96 h): 3.314 Log10CFU/mL and 3.255 Log10CFU/mL and 3.244 Log10CFU/mL and 3.15 Log10CFU/mL and 2.656 Log10CFU/mL and 3.223 Log10CFU/mL
MPcounts in BALF (AV) (Mycoplasma pneumoniae; [5]): 3.173 Log10CFU/mL
MPcounts in BALF (Mycoplasma pneumoniae; [5]): 3.05 Log10CFU/mL and 3.185 Log10CFU/mL and 3.04 Log10CFU/mL and 3.438 Log10CFU/mL and 3.295 Log10CFU/mL and 3.0308 Log10CFU/mL
cell counts, total (AV) ([2]; 20mg/kg, time 0): 48.3833 n*10^5
cell counts, 中 (neutrophils) (AV) ([2]; 20mg/kg, time 0): 42.2036 n*10^5
cell counts, 巨 (macrophages) (AV) ([2]; 20mg/kg, time 0): 5.64 n*10^5
cell counts, 淋 (lymphocytes) (AV) ([2]; 20mg/kg, time 0): 0.5399 n*10^5
cell counts, total (AV) ([2]; 20mg/kg, time 96): 8.192 n*10^5
cell counts, 中 (neutrophils) (AV) ([2]; 20mg/kg, time 96): 1.83 n*10^5
cell counts, 巨 (macrophages) (AV) ([2]; 20mg/kg, time 96): 3.157 n*10^5
cell counts, 淋 (lymphocytes) (AV) ([2]; 20mg/kg, time 96): 3.205 n*10^5
cell counts, total (AV) ([2]; 20mg/kg, time 192): 2.917 n*10^5
cell counts, 中 (neutrophils) (AV) ([2]; 20mg/kg, time 192): 1.486 n*10^5
cell counts, 巨 (macrophages) (AV) ([2]; 20mg/kg, time 192): 0.8746 n*10^5
cell counts, 淋 (lymphocytes) (AV) ([2]; 20mg/kg, time 192): 0.5558 n*10^5
cell counts, total (AV) ([2]; 40mg/kg, time 0): 47.0528 n*10^5
cell counts, 中 (neutrophils) (AV) ([2]; 40mg/kg, time 0): 40.6758 n*10^5
cell counts, 巨 (macrophages) (AV) ([2]; 40mg/kg, time 0): 4.508 n*10^5
cell counts, 淋 (lymphocytes) (AV) ([2]; 40mg/kg, time 0): 1.869 n*10^5
cell counts, total (AV) ([2]; 40mg/kg, time 96): 7.083 n*10^5
cell counts, 中 (neutrophils) (AV) ([2]; 40mg/kg, time 96): 2.373 n*10^5
cell counts, 巨 (macrophages) (AV) ([2]; 40mg/kg, time 96): 2.398 n*10^5
cell counts, 淋 (lymphocytes) (AV) ([2]; 40mg/kg, time 96): 2.312 n*10^5
cell counts, total (AV) ([2]; 40mg/kg, time 192): 3.683 n*10^5
cell counts, 中 (neutrophils) (AV) ([2]; 40mg/kg, time 192): 1.76 n*10^5
cell counts, 巨 (macrophages) (AV) ([2]; 40mg/kg, time 192): 0.9141 n*10^5
cell counts, 淋 (lymphocytes) (AV) ([2]; 40mg/kg, time 192): 1.009 n*10^5
cell counts, total (AV) ([2]; 80mg/kg, time 0): 35.9167 n*10^5
cell counts, 中 (neutrophils) (AV) ([2]; 80mg/kg, time 0): 31.0489 n*10^5
cell counts, 巨 (macrophages) (AV) ([2]; 80mg/kg, time 0): 3.441 n*10^5
cell counts, 淋 (lymphocytes) (AV) ([2]; 80mg/kg, time 0): 1.427 n*10^5
cell counts, total (AV) ([2]; 80mg/kg, time 96): 2.675 n*10^5
cell counts, 中 (neutrophils) (AV) ([2]; 80mg/kg, time 96): 0.2904 n*10^5
cell counts, 巨 (macrophages) (AV) ([2]; 80mg/kg, time 96): 0.8707 n*10^5
cell counts, 淋 (lymphocytes) (AV) ([2]; 80mg/kg, time 96): 1.514 n*10^5
cell counts, total (AV) ([2]; 80mg/kg, time 192): 2.742 n*10^5
cell counts, 中 (neutrophils) (AV) ([2]; 80mg/kg, time 192): 0.4795 n*10^5
cell counts, 巨 (macrophages) (AV) ([2]; 80mg/kg, time 192): 1.166 n*10^5
cell counts, 淋 (lymphocytes) (AV) ([2]; 80mg/kg, time 192): 1.096 n*10^5
number of cells in BALF four days following treatment cessation ([2]; compound 16C 20, 40, and 80 mg/kg dose groups, 192 h, similar to control group (P> 0.05)): lower than that of the positive control
total number of inflammatory cells in BALF compared with the positive controls ([2]; compound 16C low-dose (20 mg/kg IM), after 4 days of treatment (96 h)): not statistically significant

Source: paper PMC11695783 (Frontiers in Pharmacology, 2024)
